Assay results as given in patent publication US11420969B2 (Exonate Limited, priority 2017, dated 2022).
Like-named read-outs stand apart in the source and are kept apart here.

How the values were obtained:
SRPK1 = SRPK1 (Homo sapiens, UniProt Q96SB4); assay: In vitro SRPK1 assay (Kinase-Glo); type: biochemical
CYP1A2 = molecular target: T1, CYP1A2 (Homo sapiens, UniProt P05177); assay: CYP inhibition assay, human liver microsomes, substrate tacrine; type: in vitro ADME; conditions: human liver microsomes, 10 min incubation, LC-MS/MS; read-out: CYP Inhibition Activity (IC50/nM) CYP1A2
T1 construct: from tissue; host or cells: human liver microsomes
T1 sequence (P05177 1-516): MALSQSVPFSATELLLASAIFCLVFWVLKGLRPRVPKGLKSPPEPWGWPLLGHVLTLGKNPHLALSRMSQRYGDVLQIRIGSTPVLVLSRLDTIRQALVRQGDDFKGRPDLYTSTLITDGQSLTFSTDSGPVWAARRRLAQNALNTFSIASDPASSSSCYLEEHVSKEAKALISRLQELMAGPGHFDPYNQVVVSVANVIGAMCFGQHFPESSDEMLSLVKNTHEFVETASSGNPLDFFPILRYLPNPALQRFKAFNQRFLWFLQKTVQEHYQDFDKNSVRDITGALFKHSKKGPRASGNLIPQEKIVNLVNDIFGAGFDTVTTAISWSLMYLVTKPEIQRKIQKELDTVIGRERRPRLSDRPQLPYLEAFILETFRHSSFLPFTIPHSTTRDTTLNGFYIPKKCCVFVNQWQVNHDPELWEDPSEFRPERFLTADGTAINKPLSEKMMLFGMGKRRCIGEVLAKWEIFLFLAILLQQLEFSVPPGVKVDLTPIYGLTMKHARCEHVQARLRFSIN
How it was run: (§1)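 Metabolite formation measured by LC-MS/MS after quench with cold acetonitrile, yielding % inhibition and IC50. Reactions ran 10 min at 37° C after NADPH addition, following 20 min pre-incubation of substrate pool and inhibitor with human liver microsomes.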

CYP2C9 = molecular target: T2, CYP2C9 (Homo sapiens, UniProt P11712); assay: CYP inhibition assay, human liver microsomes, substrate diclofenac; type: in vitro ADME
T2 construct: from tissue; host or cells: human liver microsomes
How it was run: as §1

CYP2C19 = molecular target: T3, CYP2C19 (Homo sapiens, UniProt P33261); assay: CYP inhibition assay, human liver microsomes, substrate S-mephenytoin; type: in vitro ADME; conditions: human liver microsomes, 10 min incubation, LC-MS/MS; read-out: CYP Inhibition Activity (IC50/nM) CYP2C19
T3 construct: from tissue; host or cells: human liver microsomes
How it was run: as §1

CYP2D6 = molecular target: T4, CYP2D6 (Homo sapiens, UniProt P10635); assay: biochemical; type: in vitro ADME
T4 construct: from tissue; host or cells: human liver microsomes
How it was run: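 Read-out is LC-MS/MS of supernatant, giving % inhibition and IC50 relative to a no-inhibitor ACN/DMSO control. Compound and substrate pool were pre-incubated 20 min at 37° C with human liver microsomes (working stock 0.253 mg/mL) before a 10 min NADPH-driven reaction, quenched with cold ACN.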

CYP3A4 = molecular target: T5, CYP3A4 (Homo sapiens, UniProt P08684); assay: CYP inhibition assay, human liver microsomes, substrate midazolam; type: in vitro ADME; conditions: human liver microsomes, 10 min incubation, LC-MS/MS; read-out: CYP Inhibition Activity (IC50/nM) CYP3A4
T5 construct: from tissue; host or cells: human liver microsomes
How it was run: as §1

[1] = human liver microsomes, 10 min incubation, LC-MS/MS, read-out: CYP Inhibition Activity (IC50/nM) CYP2C9

Sequence of SRPK1 (Q96SB4 whole entry, species assumed): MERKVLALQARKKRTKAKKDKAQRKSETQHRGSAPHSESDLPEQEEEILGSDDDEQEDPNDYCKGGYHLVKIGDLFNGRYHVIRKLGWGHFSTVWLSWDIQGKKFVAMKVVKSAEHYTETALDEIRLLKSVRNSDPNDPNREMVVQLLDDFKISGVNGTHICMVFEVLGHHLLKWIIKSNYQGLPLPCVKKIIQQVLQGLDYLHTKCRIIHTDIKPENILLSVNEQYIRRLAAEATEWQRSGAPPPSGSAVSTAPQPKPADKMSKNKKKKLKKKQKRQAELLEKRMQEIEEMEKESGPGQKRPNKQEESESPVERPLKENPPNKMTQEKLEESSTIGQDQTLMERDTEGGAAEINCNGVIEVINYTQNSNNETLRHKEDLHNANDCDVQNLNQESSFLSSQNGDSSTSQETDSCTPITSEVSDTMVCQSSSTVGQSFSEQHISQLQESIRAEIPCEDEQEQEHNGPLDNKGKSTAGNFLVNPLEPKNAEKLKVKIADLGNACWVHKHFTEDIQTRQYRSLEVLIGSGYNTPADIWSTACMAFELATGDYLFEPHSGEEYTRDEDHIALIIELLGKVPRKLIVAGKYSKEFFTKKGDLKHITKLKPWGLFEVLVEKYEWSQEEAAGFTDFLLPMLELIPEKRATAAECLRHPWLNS
T2 sequence (P11712 whole entry): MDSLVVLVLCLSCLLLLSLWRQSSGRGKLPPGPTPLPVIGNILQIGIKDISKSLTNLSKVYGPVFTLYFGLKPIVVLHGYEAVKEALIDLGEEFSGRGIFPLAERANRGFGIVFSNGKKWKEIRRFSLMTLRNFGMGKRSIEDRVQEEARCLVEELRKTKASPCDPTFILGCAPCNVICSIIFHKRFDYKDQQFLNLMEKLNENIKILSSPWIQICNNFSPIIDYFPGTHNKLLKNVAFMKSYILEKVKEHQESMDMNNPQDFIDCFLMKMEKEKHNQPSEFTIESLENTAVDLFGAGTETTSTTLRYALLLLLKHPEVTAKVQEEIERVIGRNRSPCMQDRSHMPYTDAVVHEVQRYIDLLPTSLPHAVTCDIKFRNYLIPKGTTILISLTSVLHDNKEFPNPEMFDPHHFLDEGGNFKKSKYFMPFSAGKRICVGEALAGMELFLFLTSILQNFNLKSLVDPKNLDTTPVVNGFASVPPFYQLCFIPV
T3 sequence (P33261 whole entry): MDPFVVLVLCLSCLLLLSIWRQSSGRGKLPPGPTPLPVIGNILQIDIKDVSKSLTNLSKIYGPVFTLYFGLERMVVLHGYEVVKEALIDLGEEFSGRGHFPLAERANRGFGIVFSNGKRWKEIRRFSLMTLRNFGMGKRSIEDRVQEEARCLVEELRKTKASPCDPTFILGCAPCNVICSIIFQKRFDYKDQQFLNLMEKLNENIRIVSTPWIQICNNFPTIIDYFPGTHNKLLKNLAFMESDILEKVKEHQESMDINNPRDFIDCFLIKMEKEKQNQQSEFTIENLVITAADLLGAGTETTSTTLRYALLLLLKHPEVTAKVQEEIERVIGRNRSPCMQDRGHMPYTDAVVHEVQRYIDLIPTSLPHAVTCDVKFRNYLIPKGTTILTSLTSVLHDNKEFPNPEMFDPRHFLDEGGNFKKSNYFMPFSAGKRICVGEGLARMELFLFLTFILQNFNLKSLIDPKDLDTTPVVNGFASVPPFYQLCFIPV
T5 sequence (P08684 whole entry): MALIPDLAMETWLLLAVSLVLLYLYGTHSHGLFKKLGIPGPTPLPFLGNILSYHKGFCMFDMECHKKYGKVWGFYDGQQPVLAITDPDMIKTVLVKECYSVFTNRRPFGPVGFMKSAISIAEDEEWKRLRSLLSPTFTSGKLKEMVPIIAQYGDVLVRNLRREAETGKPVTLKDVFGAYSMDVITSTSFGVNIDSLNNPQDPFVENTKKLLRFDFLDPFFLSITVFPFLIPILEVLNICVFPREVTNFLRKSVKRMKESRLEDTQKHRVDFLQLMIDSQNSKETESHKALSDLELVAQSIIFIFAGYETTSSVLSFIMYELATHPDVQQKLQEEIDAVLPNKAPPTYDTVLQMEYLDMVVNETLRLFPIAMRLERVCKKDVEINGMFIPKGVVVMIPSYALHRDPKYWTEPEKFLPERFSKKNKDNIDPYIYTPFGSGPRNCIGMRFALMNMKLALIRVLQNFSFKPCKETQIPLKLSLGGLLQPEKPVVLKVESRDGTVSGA
T4 sequence (P10635 whole entry): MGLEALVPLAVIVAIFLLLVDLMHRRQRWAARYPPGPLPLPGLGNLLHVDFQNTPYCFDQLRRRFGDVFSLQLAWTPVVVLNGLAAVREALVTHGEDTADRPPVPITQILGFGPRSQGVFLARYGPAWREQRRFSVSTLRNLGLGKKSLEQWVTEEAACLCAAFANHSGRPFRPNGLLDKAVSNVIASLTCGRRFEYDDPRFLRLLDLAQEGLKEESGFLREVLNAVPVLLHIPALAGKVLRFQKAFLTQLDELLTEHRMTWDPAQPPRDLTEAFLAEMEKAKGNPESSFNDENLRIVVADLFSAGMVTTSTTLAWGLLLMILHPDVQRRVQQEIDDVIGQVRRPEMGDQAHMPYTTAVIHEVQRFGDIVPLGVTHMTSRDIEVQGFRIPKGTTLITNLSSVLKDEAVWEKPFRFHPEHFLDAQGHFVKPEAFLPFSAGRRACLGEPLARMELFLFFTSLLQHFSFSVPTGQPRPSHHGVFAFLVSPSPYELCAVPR

| Compound | IC50 (SRPK1) | IC50 (CYP1A2) | IC50 (CYP2C9; [1]) | IC50 (CYP2C19) | IC50 (CYP2D6) | IC50 (CYP3A4) | IC50 (CYP2C9) | IC50 (CYP2D6; human liver microsomes, 10 min incubation, LC-MS/MS, read-out: CYP Inhibition Activity (IC50/nM) CYP2D6) |
| --- | --- | --- | --- | --- | --- | --- | --- | --- |
| CC1(N)CCN(c2ccc(C(F)(F)F)cc2NC(=O)c2ccc(C3CCOCC3)o2)CC1 [Example 101, N-(2-(4-amino-4-methylpiperidin-1-yl)-5-(trifluoromethyl)-phenyl)-5-(tetrahydro-2H-pyran-4-yl)furan-2-carboxamide] | 15.1 nM | > 30000 nM | > 30000 nM | > 30000 nM | 4800 nM | > 30000 nM | – | – |
| O=C(Nc1cc(C(F)(F)F)ccc1N1CCC2(CCCC2)CC1)c1ccc(C2CCOCC2)o1 [Example 98, N-(2-(8-azaspirol4.51decan-8-yl)-5-(trifluoromethyl)phenyl)-5-(tetrahydro-2H-pyran-4-yl)furan-2-carboxamide] | 7.5 nM | > 30000 nM | – | > 30000 nM | – | > 30000 nM | 18600 nM | > 30000 nM |
| C[C@@]1(O)CCN(c2ccc(C(F)(F)F)cc2NC(=O)c2ccc(C3CCOCC3)o2)C1 [Example 50, (R)-N-(2-(3-hydroxy-3-methylpyrrolidin-1-yl)-5-(trifluoromethyl)phenyl)-5-(tetrahydro-2H-pyran-4-yl)furan-2-carboxamide] | 28.8 nM | 5300 nM | 9000 nM | 24500 nM | > 30000 nM | > 30000 nM | – | – |
| O=C(Nc1cc(Cl)ccc1N1CCCC(O)CC1)c1ccc(-c2ccncc2)o1 (racemic) [Example 45, N-(5-chloro-2-(4-hydroxyazepan-1-yl)phenyl)-5-(pyridin-4-yl)furan-2-carboxamide] | 30 nM | 550 nM | 410 nM | 100 nM | 660 nM | 1430 nM | – | – |
| CC1(O)CCN(c2ccc(C(F)(F)F)cc2NC(=O)c2ccc(C3CCOCC3)o2)C1 (racemic) [Example 54, N-(2-(3-hydroxy-3-methylpyrrolidin-1-yl)-5-(trifluoromethyl)-phenyl)-5-(tetrahydro-2H-pyran-4-yl)furan-2-carboxamide] | 35 nM | > 30000 nM | 6350 nM | 6140 nM | 7140 nM | 20900 nM | – | – |
| CN(C)C(=O)C1(C)CCN(c2ccc(Cl)cc2NC(=O)c2ccc(C3CCOCC3)o2)CC1 [Example 84, 1-(4-chloro-2-(5-(tetrahydro-2H-pyran-4-yl)furan-2-carboxamido)phenyl)-N,N,4-trimethyl-piperidine-4-carboxamide] | 23 nM | > 30000 nM | 600 nM | 8000 nM | 12400 nM | 2200 nM | – | – |
| O=C(Nc1cc(C(F)(F)F)ccc1N1CCC(O)C1)c1ccc(C2CCOCC2)o1 (racemic) [Example 57, N-(2-(3-hydroxypyrrolidin-1-yl)-5-(trifluoromethyl)-phenyl)-5-(tetrahydro-2H-pyran-4-yl)furan-2-carboxamide] | 75 nM | 9160 nM | 5550 nM | 14500 nM | 11500 nM | > 30000 nM | – | – |
| CN(C)CC1(C)CCN(c2ccc(C3CC3)cc2NC(=O)c2ccc(C3CCOCC3)o2)CC1 [Example 93, N-(5-cyclopropyl-2-(4-((dimethylamino)methyl)-4-methylpiperidin-1-yl)phenyl)-5-(tetrahydro-2H-pyran-4-yl)furan-2-carboxamide] | 28 nM | > 30000 nM | 13700 nM | 25700 nM | 24300 nM | 29500 nM | – | – |
| CC1(O)CCN(c2ccc(Cl)cc2NC(=O)c2ccccn2)CC1 [Example 2, N-(5-chloro-2-(4-hydroxy-4-methylpiperidin-1-yl)-phenyl)picolinamide] | 25 nM | 5890 nM | 13500 nM | 18200 nM | > 30000 nM | 10000 nM | – | – |

Continued, in another order:

| IC50 (SRPK1) | IC50 (CYP1A2) | IC50 (CYP2C9; [1]) | IC50 (CYP2C19) | IC50 (CYP2D6) | IC50 (CYP3A4) | Compound | IC50 (CYP2C9) | IC50 (CYP2D6; human liver microsomes, 10 min incubation, LC-MS/MS, read-out: CYP Inhibition Activity (IC50/nM) CYP2D6) |
| --- | --- | --- | --- | --- | --- | --- | --- | --- |
| 7.3 nM | 19000 nM | 3800 nM | 7700 nM | 25900 nM | 7700 nM | CC1(O)CCN(c2ccc(C(F)F)cc2NC(=O)c2ccc(C3CCOCC3)o2)CC1 [Example 14, N-(5-(difluoromethyl)-2-(4-hydroxy-4-methyl-piperidin-1-yl)phenyl)-5-(tetrahydro-2H-pyran-4-yl)furan-2-carboxamide] | – | – |
| 2 nM | > 30000 nM | 4960 nM | 15800 nM | > 30000 nM | > 30000 nM | CC1(CO)CCN(c2ccc(C(F)(F)F)cc2NC(=O)c2ccc(C3CCOCC3)o2)CC1 [Example 25, N-(2-(4-(hydroxymethyl)-4-methylpiperidin-1-yl)-5-(trifluoromethyl)phenyl)-5-(tetrahydro-2H-pyran-4-yl)furan-2-carboxamide] | – | – |
| 1.2 nM | > 30000 nM | 7600 nM | 10600 nM | > 30000 nM | > 30000 nM | O=C(Nc1cc(C2CC2)ccc1N1CCC(O)CC1)c1ccc(C2CCOCC2)o1 [Example 61, N-(5-cyclopropyl-2-(4-hydroxypiperidin-1-yl)phenyl)-5-(tetrahydro-2H-pyran-4-yl)furan-2-carboxamide] | – | – |
| 15 nM | > 30000 nM | > 30000 nM | > 30000 nM | > 30000 nM | > 30000 nM | CC1(C)CCN(c2ccc(C(F)(F)F)cc2NC(=O)c2ccc(-c3ccncc3)o2)CC1 [Example 28, N-(2-(4,4-dimethylpiperidin-1-yl)-5-(trifluoromethyl)phenyl)-5-(pyridin-4-yl)furan-2-carboxamide] | – | – |
| 3.2 nM | > 30000 nM | 1700 nM | 4250 nM | 8680 nM | 750 nM | CNC(=O)C1(C)CCN(c2ccc(C(F)(F)F)cc2NC(=O)c2ccc(C3CCOCC3)o2)CC1 [Example 76, N,4-dimethyl-1-(2-(5-(tetrahydro-2H-pyran-4-yl)furan-2-carboxamido)-4-(trifluoromethyl)-phenyl)piperidine-4-carboxamide] | – | – |
| 3.6 nM | > 30000 nM | 12600 nM | > 30000 nM | > 30000 nM | > 30000 nM | CC1(C(=O)O)CCN(c2ccc(C(F)(F)F)cc2NC(=O)c2ccc(C3CCOCC3)o2)CC1 [Example 27, 4-methyl-1-(2-(5-(tetrahydro-2H-pyran-4-yl)furan-2-carboxamido)-4-(trifluoromethyl)phenyl)-piperidine-4-carboxylic acid] | – | – |
| 6 nM | > 30000 nM | > 30000 nM | > 30000 nM | > 30000 nM | > 30000 nM | CCC1(O)CCN(c2ccc(C(F)(F)F)cc2NC(=O)c2ccc(C3CCOCC3)o2)CC1 [Example 20, N-(2-(4-ethyl-4-hydroxypiperidin-1-yl)-5-(trifluoromethyl)phenyl)-5-(tetrahydro-2H-pyran-4-yl)furan-2-carboxamide] | – | – |
| 4.1 nM | > 30000 nM | 3300 nM | 7900 nM | > 30000 nM | > 30000 nM | CC1(CO)CCN(c2ccc(C3CC3)cc2NC(=O)c2ccc(C3CCOCC3)o2)CC1 [Example 67, N-(5-cyclopropyl-2-(4-(hydroxymethyl)-4-methylpiperidin-1-yl)phenyl)-5-(tetrahydro-2H-pyran-4-yl)furan-2-carboxamide] | – | – |
